“And” between values parts separate entries of the source, which are not always exact repeats. Identical values can stand only once. Toxic doses and inconclusive results are not listed. Rule for the calls: active = survival T/C of 150% or more; inactive = T/C below 125% in these data.
Test system: P388 leukemia ip, CD2F1 mice, survival T/C
Experiment: NCI In Vivo Anticancer Drug Screen. Data for tumor model P388 Leukemia (intraperitoneal) in CD2F1 (CDF1) mice
Conditions: endpoint: median survival time, higher = longer survival
Summary of the method: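 Mice carrying the transplanted tumor received test compound or vehicle. Survival was recorded in each group, and the value is the treated-group measurement divided by that of the vehicle-treated control group.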

[1] = dose: 50.0 mg/kg/injection, schedule: Q01DX009 (ip), vehicle: Klucel (hydroxypropylcellulose) (HPC)
[2] = dose: 100.0 mg/kg/injection, schedule: Q01DX009 (ip), vehicle: Klucel (hydroxypropylcellulose) (HPC)
[3] = dose: 12.5 mg/kg/injection, schedule: Q01DX009 (ip), vehicle: saline with Tween-80
[4] = dose: 25.0 mg/kg/injection, schedule: Q01DX009 (ip), vehicle: saline with Tween-80
[5] = dose: 50.0 mg/kg/injection, schedule: Q01DX009 (ip), vehicle: saline with Tween-80
[6] = dose: 100.0 mg/kg/injection, schedule: Q01DX009 (ip), vehicle: saline with Tween-80
[7] = dose: 200.0 mg/kg/injection, schedule: Q01DX009 (ip), vehicle: saline with Tween-80
[8] = dose: 6.25 mg/kg/injection, schedule: Q01DX009 (ip), vehicle: saline with Tween-80

Measured: T/C

O=C1c2cc(Br)ccc2OC2CCON12 (configuration not stated)
inactive: [1] 108 % of control | [2] 107 % of control | dose: 200.0 mg/kg/injection, schedule: Q01DX009 (ip), vehicle: Klucel (hydroxypropylcellulose) (HPC) 94 % of control

COC1/C=C/OC2(C)Oc3c(C)c(O)c4c(O)c(c(/C=N/N5CC(C)N(C(=O)c6ccccc6)C(C)C5)c(O)c4c3C2=O)NC(=O)C(C)=C/C=C/C(C)C(O)C(C)C(O)C(C)C(OC(C)=O)C1C (configuration not stated)
inactive: [3] 124 % of control | [4] 124 % of control | [5] 118 % of control | [6] 116 % of control | [7] 109 % of control

O=C(O)CCCCCCCCCO
inactive: dose: 25.0 mg/kg/injection, schedule: Q01DX009 (ip), vehicle: saline 109 % of control | dose: 50.0 mg/kg/injection, schedule: Q01DX009 (ip), vehicle: saline 115 % of control | dose: 100.0 mg/kg/injection, schedule: Q01DX009 (ip), vehicle: saline 100 % of control | dose: 200.0 mg/kg/injection, schedule: Q01DX009 (ip), vehicle: saline 100 % of control

CN1C(=O)c2ccccc2NC(=O)C12O[C@@H]2c1ccccc1 (some centres not stated)
inactive: dose: 1.88 mg/kg/injection, schedule: Q01DX005 (ip), vehicle: DMSO 100 % of control | dose: 3.75 mg/kg/injection, schedule: Q01DX005 (ip), vehicle: DMSO 106 % of control | dose: 7.5 mg/kg/injection, schedule: Q01DX005 (ip), vehicle: DMSO 106 % of control | dose: 15.0 mg/kg/injection, schedule: Q01DX005 (ip), vehicle: DMSO 114 % of control

C/C(O)=C(/N=Nc1ccc(-c2nc3ccc(C)c(S(=O)(=O)O)c3s2)cc1)C(=O)Nc1ccccc1
inactive: [8] 104 % of control | [3] 95 % of control | [4] 96 % of control

CC1(O)Cc2c(O)c3c(c(O)c2CC1O)C(=O)C=CC3=O (configuration not stated)
inactive: dose: 3.13 mg/kg/injection, schedule: Q04DX003 (ip), vehicle: distilled water + Tween-80 100 % of control | dose: 6.25 mg/kg/injection, schedule: Q04DX003 (ip), vehicle: distilled water + Tween-80 100 % of control | dose: 12.5 mg/kg/injection, schedule: Q04DX003 (ip), vehicle: distilled water + Tween-80 97 % of control | dose: 25.0 mg/kg/injection, schedule: Q04DX003 (ip), vehicle: distilled water + Tween-80 100 % of control and 96 % of control

O=C1c2cc(I)cc(I)c2NC(O)c2cccn21 (configuration not stated)
inactive: dose: 0.1 mg/kg/injection, schedule: Q01DX005 (ip), vehicle: water 102 % of control | dose: 0.2 mg/kg/injection, schedule: Q01DX005 (ip), vehicle: water 98 % of control | dose: 0.4 mg/kg/injection, schedule: Q01DX005 (ip), vehicle: water 102 % of control | dose: 0.8 mg/kg/injection, schedule: Q01DX005 (ip), vehicle: water 98 % of control | dose: 1.6 mg/kg/injection, schedule: Q01DX005 (ip), vehicle: water 99 % of control | dose: 5.0 mg/kg/injection, schedule: Q01DX005 (ip), vehicle: distilled water + Tween-80 94 % of control | dose: 10.0 mg/kg/injection, schedule: Q01DX005 (ip), vehicle: distilled water + Tween-80 95 % of control | dose: 20.0 mg/kg/injection, schedule: Q01DX005 (ip), vehicle: distilled water + Tween-80 102 % of control | dose: 40.0 mg/kg/injection, schedule: Q01DX005 (ip), vehicle: distilled water + Tween-80 102 % of control | dose: 80.0 mg/kg/injection, schedule: Q01DX005 (ip), vehicle: distilled water + Tween-80 98 % of control

O=C(O)c1cc(CCCC(=O)c2cc(C(=O)O)c(O)c3ccccc23)c2ccccc2c1O
inactive: dose: 100.0 mg/kg/injection, schedule: Q04DX002 (ip), vehicle: Klucel (hydroxypropylcellulose) (HPC) 90 % of control

CCCCCC1c2cc(O)ccc2OC1N1CCOCC1 (configuration not stated)
inactive: [3] 105 % of control | [4] 101 % of control | [5] 113 % of control and 120 % of control | [6] 119 % of control and 124 % of control

O=S(=O)(OCCCl)c1c(F)c(F)c(F)c(F)c1F
inactive: dose: 3.12 mg/kg/injection, schedule: Q01DX009 (ip), vehicle: saline with Tween-80 103 % of control | [8] 109 % of control | [3] 110 % of control

C/C(=N/NC(N)=O)c1cccc(/C(C)=N/NC(N)=O)n1.[Cl][Cu][Cl]
inactive: dose: 3.12 mg/kg/injection, schedule: Q01DX009 (ip), vehicle: saline 108 % of control | dose: 6.25 mg/kg/injection, schedule: Q01DX009 (ip), vehicle: saline 94 % of control | dose: 12.5 mg/kg/injection, schedule: Q01DX009 (ip), vehicle: saline 99 % of control

CC1(C)CCCc2c(-c3ccccc3)cc3c4[nH]c5ccccc5c4cc[n+]3c21
inactive: [5] 99 % of control | [6] 99 % of control | [7] 101 % of control

COc1ccc(NC2=C(Cl)C(=O)C(Nc3ccc(OC)cc3)=C(Cl)C2=O)cc1
inactive: dose: 50.0 mg/kg/injection, schedule: Q01DX005 (ip), vehicle: saline with Tween-80 95 % of control | dose: 100.0 mg/kg/injection, schedule: Q01DX005 (ip), vehicle: saline with Tween-80 97 % of control | dose: 200.0 mg/kg/injection, schedule: Q01DX005 (ip), vehicle: saline with Tween-80 98 % of control

CN(C)c1nnnn1-c1ccccc1
inactive: dose: 60.0 mg/kg/injection, schedule: Q01DX005 (ip), vehicle: saline with Tween-80 104 % of control | dose: 120.0 mg/kg/injection, schedule: Q01DX005 (ip), vehicle: saline with Tween-80 107 % of control | dose: 240.0 mg/kg/injection, schedule: Q01DX005 (ip), vehicle: saline with Tween-80 107 % of control

CC(C)C1OC(c2ccc(Cl)cc2)OCC1(C)C (configuration not stated)
inactive: dose: 100.0 mg/kg/injection, schedule: Q04DX003 (ip), vehicle: saline with Tween-80 114 % of control | dose: 200.0 mg/kg/injection, schedule: Q04DX003 (ip), vehicle: saline with Tween-80 110 % of control | dose: 400.0 mg/kg/injection, schedule: Q04DX003 (ip), vehicle: saline with Tween-80 97 % of control

Cc1ccc(S(=O)(=O)N/N=C/c2c(Br)nc3n2CCS3)cc1
inactive: dose: 100.0 mg/kg/injection, schedule: Q01DX001 (ip), vehicle: Klucel (hydroxypropylcellulose) (HPC) 94 % of control | dose: 200.0 mg/kg/injection, schedule: Q01DX001 (ip), vehicle: Klucel (hydroxypropylcellulose) (HPC) 89 % of control | dose: 400.0 mg/kg/injection, schedule: Q01DX001 (ip), vehicle: Klucel (hydroxypropylcellulose) (HPC) 92 % of control

CC(=O)Nc1cc(N)c2c(c1)CCCC2=O
inactive: dose: 60.0 mg/kg/injection, schedule: Q01DX005 (ip), vehicle: Klucel (hydroxypropylcellulose) (HPC) 97 % of control | dose: 120.0 mg/kg/injection, schedule: Q01DX005 (ip), vehicle: Klucel (hydroxypropylcellulose) (HPC) 96 % of control | dose: 240.0 mg/kg/injection, schedule: Q01DX005 (ip), vehicle: Klucel (hydroxypropylcellulose) (HPC) 90 % of control

Cc1cccc(Cl)c1NC(=O)CCl
inactive: dose: 12.5 mg/kg/injection, schedule: Q01DX009 (ip), vehicle: Klucel (hydroxypropylcellulose) (HPC) 101 % of control | dose: 25.0 mg/kg/injection, schedule: Q01DX009 (ip), vehicle: Klucel (hydroxypropylcellulose) (HPC) 101 % of control | [1] 93 % of control | [2] 101 % of control

CCCCC(CC)C(=O)NCCCN(C)C (configuration not stated)
inactive: dose: 50.0 mg/kg/injection, schedule: Q01DX005 (ip), vehicle: saline 99 % of control | dose: 100.0 mg/kg/injection, schedule: Q01DX005 (ip), vehicle: saline 99 % of control | dose: 200.0 mg/kg/injection, schedule: Q01DX005 (ip), vehicle: saline 94 % of control

COc1ccc2c(c1OC)CCN1C3=C(CC(OC(=O)c4ccccc4)CC3)C(=O)CC21 (configuration not stated)
inactive: dose: 100.0 mg/kg/injection, schedule: Q01DX001 (ip), vehicle: saline sonified 100 % of control | dose: 200.0 mg/kg/injection, schedule: Q01DX001 (ip), vehicle: saline sonified 110 % of control | dose: 400.0 mg/kg/injection, schedule: Q01DX001 (ip), vehicle: saline sonified 110 % of control

— PubChem BioAssay AID330 (DTP/NCI, 2004)
